Source: patent US9018206B2, “Carboxamide compounds and their use as calpain inhibitors” (AbbVie Deutschland GmbH & Co. KG, priority 2009, dated 2015)
pKi: −log10 of the molar value.

How the values were obtained:
[1] = target: T1, recombinant human cathepsin S (Homo sapiens, UniProt P25774); experiment: Cathepsin S enzyme inhibition in vitro (kinetic fluorescence assay); type: biochemical; conditions: Ki(cathepsin S)/Ki(calpain) ratio
T1 construct: purchased Calbiochem 219343; host or cells: E. coli
T1 sequence (P25774 115-331): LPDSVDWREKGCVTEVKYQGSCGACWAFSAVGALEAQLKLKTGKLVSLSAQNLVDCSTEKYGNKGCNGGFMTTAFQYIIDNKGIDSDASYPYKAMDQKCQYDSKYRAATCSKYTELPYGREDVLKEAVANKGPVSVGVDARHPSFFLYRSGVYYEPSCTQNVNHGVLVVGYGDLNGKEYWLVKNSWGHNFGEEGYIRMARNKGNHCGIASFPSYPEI
Summary of the method: (§1)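 Kinetic AMC fluorescence (ex 390/em 460 nm), room temperature. Calpain-I 20 nM, 100 μM Suc-Leu-Tyr-AMC, imidazole/CaCl2 pH 7.3; cathepsins B 0.25 nM/100 μM Z-Phe-Arg-AMC, K 3 nM/10 μM Z-Gly-Pro-Arg-AMC, S 0.5 nM/20 μM Z-Val-Val-Arg-AMC, each MES/EDTA/cysteine pH 6.0. Ki from IC50 via Cheng-Prusoff, averaging 2–4 curves.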

[2] = Assay for determining cytosolic clearance, human liver cytosol; type: in vitro ADME; conditions: 0.5 μM compound, 1 mg/ml human liver cytosol, 37° C., pH 7.5
Method: (§2) For comparison purposes data measured with human liver cytosol were contrasted with those obtained with cynomolgus monkey liver cytosol.
(§3) 0.5 μM of a compound to be tested was incubated with 1 mg/ml of human liver cytosol as well as monkey liver cytosol at 37° C. in 0.5 M of phosphate buffer at pH 7.5 while shaking (commercial sources: female cynomolgus liver cytosol from Tebu bio, human liver cytosol from BDgentest).
(§4) In each case aliquots of 65 μl were taken after 0, 5, 10 and 15 min and transferred into wells of a wellplate which were immediately filled with 130 μl of ethanol to stop the reaction. The samples were kept frozen until analysis on a LC/MS/MS system (Applied Biosystems SCIEX 4000).
(§5) Read out parameters were the loss of parent compounds, from which the half life periods (T1/2) were calculated from.
(§6) To assess the stability of the compounds tested the clearance ranges were adjusted to the hepatic plasma flow of the different species according to the following scheme:
(§7) stable=from 0 to about ⅓ of the hepatic plasma flow;
(§8) moderately stable=from about ⅓ to about ⅔ of the hepatic plasma flow;
(§9) instable=more than ⅔ of the hepatic plasma flow.
(§10) Based on this adjustment the following qualifiers were assigned to evaluate the cytosolic stabilities of the compounds tested: […]

[3] = target: T2, cathepsin K activated from recombinant human procathepsin K (Homo sapiens, UniProt P43235); experiment: Cathepsin K enzyme inhibition in vitro (kinetic fluorescence assay); type: biochemical; conditions: Ki(cathepsin K)/Ki(calpain) ratio
T2 construct: purchased Calbiochem 342001; host or cells: E. coli
T2 sequence (P43235 115-329): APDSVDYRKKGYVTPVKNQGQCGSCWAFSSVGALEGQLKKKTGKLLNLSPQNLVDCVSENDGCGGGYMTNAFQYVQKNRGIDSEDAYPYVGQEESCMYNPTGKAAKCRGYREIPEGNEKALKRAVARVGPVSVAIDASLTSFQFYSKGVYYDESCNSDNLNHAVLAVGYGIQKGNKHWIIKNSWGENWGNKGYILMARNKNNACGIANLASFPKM
Summary of the method: as §1

[4] = target: T3, cathepsin B isolated from human liver (Homo sapiens, UniProt P07858); experiment: Cathepsin B enzyme inhibition in vitro (kinetic fluorescence assay); type: biochemical; conditions: Ki(cathepsin B)/Ki(calpain) ratio
T3 construct: cathepsin B—isolated from human liver; purchased Calbiochem 219362; host or cells: human liver (tissue-derived)
Summary of the method: as §1

[5] = target: T4, cathepsin L isolated from human liver (Homo sapiens, UniProt P07711); experiment: Cathepsin L enzyme inhibition in vitro (kinetic fluorescence assay); type: biochemical; conditions: Ki(cathepsin L)/Ki(calpain) ratio
T4 construct: cathepsin L—isolated from human liver; purchased Calbiochem 219402; host or cells: human liver (tissue-derived)
T4 sequence (P07711 114-333): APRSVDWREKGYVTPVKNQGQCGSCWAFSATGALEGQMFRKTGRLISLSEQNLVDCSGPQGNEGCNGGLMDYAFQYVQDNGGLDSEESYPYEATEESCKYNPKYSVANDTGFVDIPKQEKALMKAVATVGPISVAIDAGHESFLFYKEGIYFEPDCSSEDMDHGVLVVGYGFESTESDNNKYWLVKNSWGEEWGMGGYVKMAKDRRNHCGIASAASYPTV
Summary of the method: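 Inhibition of cathepsin L isolated from human liver was measured by kinetic fluorescence (excitation 390 nm, emission 460 nm) using 1 nM enzyme and 2 μM Z-Phe-Arg-AMC substrate (Km 2 μM) in 50 mM MES, 2 mM EDTA, 0.05% Brij 35, 2.5 mM L-cysteine, pH 6.0, at room temperature. Apparent Ki values came from IC50 values via the Cheng-Prussoff relation, averaged over 2 to 4 dose-effect plots.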

[6] = Assay for determining cytosolic clearance, cynomolgus monkey liver cytosol; type: in vitro ADME; conditions: 0.5 μM compound, 1 mg/ml cynomolgus monkey liver cytosol, 37° C., pH 7.5
Method: as §2, §3, §4, §5, §6, §7, §8, §9, §10

[7] = target: T5, calpain-I isolated from human erythrocytes (Homo sapiens, UniProt P07384); experiment: Calpain I enzyme inhibition in vitro (kinetic fluorescence assay); type: biochemical; conditions: apparent Ki from IC50 (Cheng-Prussoff); 20 nM calpain-I, 100 μM Suc-Leu-Tyr-AMC, pH 7.3, room temperature
T5 construct: calpain-I—isolated from human erythrocytes; purchased Calbiochem 208713; host or cells: human erythrocytes (tissue-derived)
T5 sequence (P07384 1-714): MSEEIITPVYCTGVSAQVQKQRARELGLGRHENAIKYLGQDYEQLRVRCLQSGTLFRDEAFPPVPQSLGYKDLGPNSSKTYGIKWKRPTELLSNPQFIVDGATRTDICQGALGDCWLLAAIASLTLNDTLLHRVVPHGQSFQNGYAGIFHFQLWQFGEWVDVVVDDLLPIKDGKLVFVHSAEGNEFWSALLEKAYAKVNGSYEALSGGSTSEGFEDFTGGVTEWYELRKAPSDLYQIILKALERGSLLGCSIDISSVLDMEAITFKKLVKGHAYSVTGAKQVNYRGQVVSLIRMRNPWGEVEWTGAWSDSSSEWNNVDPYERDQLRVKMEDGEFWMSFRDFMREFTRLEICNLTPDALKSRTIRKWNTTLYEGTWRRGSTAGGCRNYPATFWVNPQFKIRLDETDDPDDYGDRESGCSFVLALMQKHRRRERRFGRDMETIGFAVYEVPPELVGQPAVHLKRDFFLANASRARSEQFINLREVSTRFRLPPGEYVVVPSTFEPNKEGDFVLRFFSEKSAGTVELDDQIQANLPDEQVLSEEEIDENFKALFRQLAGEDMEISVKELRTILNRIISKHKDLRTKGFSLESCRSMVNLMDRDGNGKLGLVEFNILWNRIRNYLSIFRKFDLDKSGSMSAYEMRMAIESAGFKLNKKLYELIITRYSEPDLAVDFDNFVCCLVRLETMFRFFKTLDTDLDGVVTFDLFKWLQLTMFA
T5 sequence (P04632 1-268 partner): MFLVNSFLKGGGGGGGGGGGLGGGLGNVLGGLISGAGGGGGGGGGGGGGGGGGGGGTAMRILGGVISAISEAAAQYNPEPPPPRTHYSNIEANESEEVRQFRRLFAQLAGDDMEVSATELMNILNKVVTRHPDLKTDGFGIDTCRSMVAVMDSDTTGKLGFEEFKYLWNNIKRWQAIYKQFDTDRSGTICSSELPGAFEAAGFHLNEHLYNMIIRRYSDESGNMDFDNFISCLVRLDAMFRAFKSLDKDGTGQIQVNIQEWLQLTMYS
Summary of the method: as §1

Compound | Sel cat. S [1] | human cytCL [2] | Sel cat. K [3] | Sel cat. B [4] | Sel cat. L [5] | cyno cytCL [6] | pKi [7]
CNC(=O)C(=O)C(Cc1ccccc1)NC(=O)[C@H]1CCC(=O)N1Cc1ccccc1 (mixture of isomers) [Example 25, (2R)-1-Benzyl-N-(4-(methylamino)-3,4-dioxo-1-phenylbutan-2-yl)-5-oxopyrrolidine-2-carboxamide] | ++ (30<Ki(cathepsin B)/Ki(calpain)≦100) | ++ (0-14 μl/min/mg) | +++ (Ki(cathepsin K)/Ki(calpain) ratio of >30) | +++ (Ki(cathepsin B)/Ki(calpain) ratio of >30) | +++ (Ki(cathepsin L)/Ki(calpain) ratio of >30) | ++ (0-18 μl/min/mg) | 6.22 to 7.00
COc1cccc(C(F)(F)F)c1CN1C(=O)CC[C@@H]1C(=O)NC(Cc1ccccc1)C(=O)C(N)=O (stereo partly drawn) [Example 50, (2R)—N-(4-Amino-3,4-dioxo-1-phenylbutan-2-yl)-5-oxo-1-[2-methoxy-6-(trifluoromethyl)benzyl]pyrrolidine-2-carboxamide] | +++ (Ki(cathepsin S)/Ki(calpain) ratio of >100) | + (14-70 μl/min/mg) | +++ (Ki(cathepsin K)/Ki(calpain) ratio of >30) | +++ (Ki(cathepsin B)/Ki(calpain) ratio of >30) | +++ (Ki(cathepsin L)/Ki(calpain) ratio of >30) | + (18-90 μl/min/mg) | > 7.30
O=C(NCc1ccccn1)C(=O)C(Cc1ccccc1)NC(=O)[C@H]1CCC(=O)N1Cc1ccccc1 (stereo partly drawn) [Example 20, (2R)-1-Benzyl-N-{3,4-dioxo-1-phenyl-4-[(pyridin-2-ylmethyl)amino]butan-2-yl}-5-oxopyrrolidine-2-carboxamide] | +++ (Ki(cathepsin S)/Ki(calpain) ratio of >100) | ++ (0-14 μl/min/mg) | +++ (Ki(cathepsin K)/Ki(calpain) ratio of >30) | +++ (Ki(cathepsin B)/Ki(calpain) ratio of >30) | ++ (10<Ki(cathepsin B)/Ki(calpain)≦30) | ++ (0-18 μl/min/mg) | 7.00 to 7.30
CCNC(=O)C(=O)C(Cc1ccccc1)NC(=O)[C@H]1CCC(=O)N1Cc1ccccc1 (stereo partly drawn) [Example 21, (2R)-1-Benzyl-N-[4-(ethylamino)-3,4-dioxo-1-phenylbutan-2-yl]-5-oxopyrrolidine-2-carboxamide] | ++ (30<Ki(cathepsin B)/Ki(calpain)≦100) | ++ (0-14 μl/min/mg) | +++ (Ki(cathepsin K)/Ki(calpain) ratio of >30) | +++ (Ki(cathepsin B)/Ki(calpain) ratio of >30) | +++ (Ki(cathepsin L)/Ki(calpain) ratio of >30) | ++ (0-18 μl/min/mg) | 6.22 to 7.00
COc1cccc(C(F)(F)F)c1CN1C(=O)CC[C@@H]1C(=O)NC(Cc1ccccc1)C(=O)C(=O)NCc1ccccn1 (mixture of isomers) [Example 43, (2R)—N-(3,4-Dioxo-1-phenyl-4-(pyridin-2-ylmethylamino)butan-2-yl)-1-(2-methoxy-6-(trifluoromethyl)benzyl)-5-oxopyrrolidine-2-carboxamide] | ++ (30<Ki(cathepsin B)/Ki(calpain)≦100) | ++ (0-14 μl/min/mg) | +++ (Ki(cathepsin K)/Ki(calpain) ratio of >30) | +++ (Ki(cathepsin B)/Ki(calpain) ratio of >30) | +++ (Ki(cathepsin L)/Ki(calpain) ratio of >30) | ++ (0-18 μl/min/mg) | 6.22 to 7.00
CC(C)CNC(=O)C(=O)C(Cc1ccccc1)NC(=O)[C@H]1CCC(=O)N1Cc1ccccc1 (mixture of isomers) [Example 28, (2R)-1-Benzyl-N-(4-(isobutylamino)-3,4-dioxo-1-phenylbutan-2-yl)-5-oxopyrrolidine-2-carboxamide] | ++ (30<Ki(cathepsin B)/Ki(calpain)≦100) | ++ (0-14 μl/min/mg) | +++ (Ki(cathepsin K)/Ki(calpain) ratio of >30) | +++ (Ki(cathepsin B)/Ki(calpain) ratio of >30) | +++ (Ki(cathepsin L)/Ki(calpain) ratio of >30) | ++ (0-18 μl/min/mg) | 6.22 to 7.00
O=C(NC1CC1)C(=O)C(Cc1ccccc1)NC(=O)[C@H]1CCC(=O)N1Cc1ccccc1C(F)(F)F (mixture of isomers) [Example 36, (2R)—N-(4-(Cyclopropylamino)-3,4-dioxo-1-phenylbutan-2-yl)-5-oxo-1-(2-(trifluoromethyl)benzyl)pyrrolidine-2-carboxamide] | +++ (Ki(cathepsin S)/Ki(calpain) ratio of >100) | ++ (0-14 μl/min/mg) | +++ (Ki(cathepsin K)/Ki(calpain) ratio of >30) | ++ (10<Ki(cathepsin B)/Ki(calpain)≦30) | +++ (Ki(cathepsin L)/Ki(calpain) ratio of >30) | ++ (0-18 μl/min/mg) | 7.00 to 7.30
